Holding throughout (assay type): cell-based, human
Experiment [1] concerns NCI/ADR-RES cells. Description: SRB cytotoxicity assay in NCI/ADR-RES cells transfected with ABCB1 or mock siRNA. The conditions noted are these: for Fold reversal: mock vs ABCB1 siRNA; for effect of ABCB1 siRNA on chemosensitivity to the drug: result in words. Here is the method: (§1) Human cancer cells were transfected with ABCB1, ABCB5 or mock siRNA. Drug activity was measured with the SRB assay. IC50 is the concentration that produced 50% inhibition of cell growth compared to controls. Results represent the mean of two or mean±SD of at least three independent experiments.
(§2) We next compared growth-inhibitory IC50 values of siRNA-treated to that of mock-treated cells using a sulforhodamine B (SRB) cell proliferation assay.
(§3) Cell lines, obtained from Division of Cancer Treatment and Diagnosis at NCI, were cultured in RPMI 1640 containing 10% heat-inactivated fetal calf serum in a 5% CO2 incubator at 37° C. Transfection was performed with TransMessenger Transfection Reagent (QIAGEN). To down-regulate ABCB1 or ABCB5, cancer cells were transfected with 0.3 or 0.6 μM siRNA. For RNA extraction, cells were harvested 48 hours after transfection.
(§4) Cytotoxicity assay. 5FU, Camptothecin, and Mitoxathone were obtained from Sigma. The other compounds were from Developmental Therapeutics Program at NCI. […] Anticancer drugs were added in a dilution series in 6 replicated wells. After 4 days, incubation was terminated by replacing the medium with 100 μl 10% trichloroacetic acid (Sigma, St. Louis, Mo.) in 1×PBS, followed by incubation at 4° C. for at least 1 hour. Subsequently, the plates were washed with water and air-dried. The plates were stained with 100 μl 0.4% SRB (Sigma) in 1% acetic acid for 30 min at room temperature. Unbound dye was washed off with 1% acetic acid. After air-drying and re-solubilization of the protein-bound dye in 10 mM Tris-HCl (pH 8.0), absorbance was read by a micro-plate reader at 570 nm. To determine the IC50 values, the absorbance of control cells without drug was set at 1. Dose-response curves were plotted using SigmaPlot software (RockWare, Golden, Colo.). Each experiment was performed independently at least three times.
On the technique in general: In SRB staining, fixed cells bind dye roughly in proportion to their protein.

Experiment [2] concerns HCT-15 cells. Put plainly: SRB cytotoxicity assay in HCT-15 cells transfected with ABCB1 or mock siRNA. As to conditions: for Fold reversal: mock vs ABCB1 siRNA. Here is the method: as §1, §2, §3, §4
Experiment [3] has as its system SK-MEL-28 cells. Description: SRB cytotoxicity assay in SK-MEL-28 cells transfected with ABCB5 or mock siRNA. As to conditions: for IC50: 4 days drug, SRB; for Fold reversal: mock vs ABCB5 siRNA; for effect of ABCB5 siRNA on chemosensitivity to the drug: result in words. How it is done:
Human cancer cells were transfected with ABCB1, ABCB5 or mock siRNA. Drug activity was measured with the SRB assay. […] Results represent the mean of two or mean±SD of at least three independent experiments.
To identify suitable ABCB5 domains for siRNA-mediated gene silencing, siRNA duplexes against three target domains were synthesized and transfected into SK-MEL-28 cells.
Transfection was performed with TransMessenger Transfection Reagent (QIAGEN). To down-regulate ABCB1 or ABCB5, cancer cells were transfected with 0.3 or 0.6 μM siRNA. For RNA extraction, cells were harvested 48 hours after transfection.
as §4

Where [4] appears, read: Homo sapiens, 96 h, NCI/ADR-RES cells, ABCB1 siRNA, 4 days drug, SRB, read-out: IC50 (μM) siRNA.
Setting [5] is: Homo sapiens, 96 h, NCI/ADR-RES cells, mock siRNA, 4 days drug, SRB, read-out: IC50 (μM) Mock.
The mark [6] stands for this setting: Homo sapiens, 96 h, HCT-15 cells, ABCB1 siRNA, 4 days drug, SRB, read-out: IC50 (μM) siRNA.
Setting [7] is: Homo sapiens, 96 h, HCT-15 cells, mock siRNA, 4 days drug, SRB, read-out: IC50 (μM) Mock.
[8] abbreviates: ABCB5 siRNA, read-out: IC50 (μM) siRNA.
Where [9] appears, read: mock siRNA, read-out: IC50 (μM) Mock.
Setting [10] is: Homo sapiens, 96 h, ABCB5 siRNA, read-out: IC50 (μM) siRNA.
Setting [11] is: Homo sapiens, 96 h, mock siRNA, read-out: IC50 (μM) Mock.

SMILES strings stand for the structures. “Also recorded” adds a separate entry of the source. Where two headings read alike, the source gives them in different places.

Broadly, the IC50 is the point on the concentration scale where inhibition reaches its midpoint.

On to `CCS(=O)(=O)O.CN(C)C(=O)c1cccc(COc2ccc(N3C(N)=NC(N)=NC3(C)C)cc2Cl)c1` [Baker's antifol, Baker's-soluble-antifol], for which the 50% inhibitory concentration (IC50) came out at 131 ± 36.7 µM in experiment [1] (NCI/ADR-RES cells, ABCB1 siRNA, 4 days drug, SRB, read-out: IC50 (μM) siRNA); 420 ± 120 µM in experiment [1] (NCI/ADR-RES cells, mock siRNA, 4 days drug, SRB, read-out: IC50 (μM) Mock); 33.7 ± 6.23 µM in experiment [2] (HCT-15 cells, ABCB1 siRNA, 4 days drug, SRB, read-out: IC50 (μM) siRNA); 48.2 ± 5.18 µM in experiment [2] (HCT-15 cells, mock siRNA, 4 days drug, SRB, read-out: IC50 (μM) Mock). Besides, the Fold reversal in experiment [1] (NCI/ADR-RES cells) stood at 3.23 ± 0.45; in experiment [2] (HCT-15 cells) it was 1.47 ± 0.29.

With `CC(=O)O[C@H]1C(=O)[C@@]2(C)[C@H]([C@H](OC(=O)c3ccccc3)[C@]3(O)C[C@H](OC(=O)[C@H](O)[C@@H](NC(=O)c4ccccc4)c4ccccc4)C(C)=C1C3(C)C)[C@]1(OC(C)=O)CO[C@@H]1C[C@@H]2O` [Palitaxel, Paclitaxel], the IC50 worked out at 1.06 µM in experiment [1] (setting [4]), 8.01 µM in experiment [1] (setting [5]), 0.18 µM in experiment [2] (setting [6]) and 0.31 µM in experiment [2] (setting [7]). Also, the Fold reversal is given as 7.57 in experiment [1] (NCI/ADR-RES cells) and 1.72 in experiment [2] (HCT-15 cells). For the same compound, in experiment [1] (NCI/ADR-RES cells), the “effect of ABCB1 siRNA on chemosensitivity to the drug” value was “Enhanced chemosensitivity”.

Regarding `CC[C@@]1(O)C(=O)OCc2c1cc1n(c2=O)Cc2cc3cc(O)ccc3nc2-1` [CPT,10-OH], the IC50 in experiment [3] (setting [8]) was 0.14 ± 0.02 µM. In addition, the IC50 in experiment [3] (setting [9]) stood at 0.48 ± 0.12 µM. In addition, in experiment [3], the Fold reversal is given as 3.62 ± 1.35 and the “effect of ABCB5 siRNA on chemosensitivity to the drug” value (from here on “effect of ABCB5 siRNA”) is recorded as “Enhanced chemosensitivity”.

As for `O=C1c2c(O)ccc(O)c2C(=O)c2c(NCCNCCO)ccc(NCCNCCO)c21` [Mitoxathone], the IC50 in experiment [3] (setting [8]) was 0.79 µM; in experiment [3] (setting [9]), 1.08 µM. In addition, in experiment [3], the Fold reversal stood at 1.37. In addition, the “effect of ABCB5 siRNA” value in experiment [3] is “no change in potency; also recorded: no effect on potency”.

With `COc1cc(NS(C)(=O)=O)ccc1Nc1c2ccccc2nc2ccccc12` [AMSA], the “effect of ABCB5 siRNA” value in experiment [3] is “no change in potency”.

`O=c1[nH]cc(F)c(=O)[nH]1` [5FU, fluorouracil]: the concentration for half-maximal inhibition (IC50) in experiment [1] (setting [4]) came to 1000 µM; in experiment [1] (setting [5]), 900 µM; in experiment [3] (setting [10]), 6.43 ± 2.67 µM; in experiment [3] (setting [11]), 12.4 ± 4.6 µM. Also, the Fold reversal came to 0.90 in experiment [1] (NCI/ADR-RES cells) and 1.96 ± 0.16 in experiment [3]. For the same compound, the “effect of ABCB1 siRNA on chemosensitivity to the drug” value in experiment [1] (NCI/ADR-RES cells) was “unaffected; also recorded: no effect on potency”. In experiment [3], the “effect of ABCB5 siRNA” value is reported as “Enhanced chemosensitivity”.

On to `CC[C@@]1(O)C(=O)OCc2c1cc1n(c2=O)Cc2cc3ccccc3nc2-1` [Camptothecin], for which the concentration for half-maximal inhibition (IC50) in experiment [3] (setting [10]) is 0.06 µM; in experiment [3] (setting [11]), 0.13 µM. Further, the Fold reversal in experiment [3] stood at 2.17.

For `COC1=C2C[C@@H](C)C[C@H](OC)[C@H](O)[C@@H](C)/C=C(\C)[C@H](OC(N)=O)[C@@H](OC)/C=C\C=C(/C)C(=O)NC(=CC1=O)C2=O` [Geldanamycin, geldanamycin], the concentration for half-maximal inhibition (IC50) in experiment [1] (setting [4]) amounted to 3.6 ± 0.6 µM; in experiment [1] (setting [5]) it was 6.84 ± 1.08 µM; in experiment [2] (setting [6]), 8.2 ± 3.88 µM; in experiment [2] (setting [7]), 9.91 ± 3.96 µM. Further, the Fold reversal in experiment [1] (NCI/ADR-RES cells) was 1.95 ± 0.45; in experiment [2] (HCT-15 cells), 1.26 ± 0.14.

In the case of `C(=N\NC1=NCCN1)/c1c2ccccc2c(/C=N/NC2=NCCN2)c2ccccc12` [Bisantrene], the IC50 in experiment [1] (Homo sapiens, NCI/ADR-RES, 96 h, read-out: IC50 (μM) Mock) is above 100 µM; in experiment [1] (Homo sapiens, NCI/ADR-RES, 96 h, read-out: IC50 (μM) siRNA), 23.7 µM; in experiment [2] (Homo sapiens, HCT-15, 96 h, read-out: IC50 (μM) Mock), 7.63 µM; in experiment [2] (Homo sapiens, HCT-15, 96 h, read-out: IC50 (μM) siRNA), 5.47 µM. In addition, the Fold reversal in experiment [1] (NCI/ADR-RES cells) is reported as above 4.22; in experiment [2] (HCT-15 cells), 1.39.

For the origin of these results see patent US20050208512A1, “Determining the chemosensitivity of cells to cytotoxic agents” (The Ohio State University Research Foundation, priority 2003, published 2005).
